Activity calls are given as the source filed them. The calls are words filed in the database; no cut-off is given here. Some results are limits rather than exact numbers.

Test [1] has as its target T1, Type-1 angiotensin II receptor A (Rattus norvegicus, UniProt P25095).
T1 sequence (P25095 whole entry): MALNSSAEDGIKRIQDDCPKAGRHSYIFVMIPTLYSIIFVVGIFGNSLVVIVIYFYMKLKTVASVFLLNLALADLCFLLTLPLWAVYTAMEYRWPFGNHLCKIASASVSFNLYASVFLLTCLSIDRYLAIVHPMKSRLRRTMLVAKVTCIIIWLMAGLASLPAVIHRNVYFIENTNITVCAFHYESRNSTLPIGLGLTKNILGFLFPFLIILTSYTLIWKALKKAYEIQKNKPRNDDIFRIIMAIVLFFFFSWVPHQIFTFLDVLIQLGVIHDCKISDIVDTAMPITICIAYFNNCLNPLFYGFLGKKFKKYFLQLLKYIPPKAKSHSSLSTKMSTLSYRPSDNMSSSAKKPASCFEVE
As to the kind of experiment: Displacement of [125I]-SI-Ang-2 from AT1 receptor in Rattus norvegicus Sprague-Dawley (rat) liver membranes after 2 hr. On the set-up: species or system Membrane. (Displacement assays read how much labelled ligand stays bound in the presence of the test substance.)

In test [2] the test system is 3T3-L1. As to the kind of experiment: Induction of adipocyte differentiation in Mus musculus (mouse) 3T3L1 cells at 1 to 5 uM. Type of test: functional, cell-based.
Test [3] deals with T2, Peroxisome proliferator-activated receptor gamma (Homo sapiens) (UniProt P37231).
T2 sequence (whole entry): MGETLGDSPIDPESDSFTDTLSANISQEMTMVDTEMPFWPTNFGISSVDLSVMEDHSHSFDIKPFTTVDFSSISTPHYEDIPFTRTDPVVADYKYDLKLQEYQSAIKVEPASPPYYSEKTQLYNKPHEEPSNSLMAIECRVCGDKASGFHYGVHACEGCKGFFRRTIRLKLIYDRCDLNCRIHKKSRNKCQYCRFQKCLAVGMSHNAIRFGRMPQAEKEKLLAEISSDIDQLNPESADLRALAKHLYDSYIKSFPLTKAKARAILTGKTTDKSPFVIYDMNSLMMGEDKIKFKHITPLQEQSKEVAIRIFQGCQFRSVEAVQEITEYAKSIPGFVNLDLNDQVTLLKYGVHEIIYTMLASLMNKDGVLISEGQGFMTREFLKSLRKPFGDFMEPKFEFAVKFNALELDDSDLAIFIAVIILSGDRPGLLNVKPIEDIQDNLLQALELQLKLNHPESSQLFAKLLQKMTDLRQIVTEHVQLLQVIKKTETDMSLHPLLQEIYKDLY
Briefly: Agonist activity at Homo sapiens (human) PPARgamma LBD expressed in African green monkey CV-1 cells co-expressing GAL4 assessed as beta-galactosidase activity at 10 uM after 24 hr by luciferase reporter gene assay relative to rosiglitazone. The test is classed as cell-based.

By Ki is commonly meant a measure of affinity in units of concentration, obtained from inhibition or displacement. `Cn1c(-c2ccc3ncn(Cc4ccc(-c5ccccc5)cc4)c3c2)nc2ccccc21` had a Ki in test [1] greater than 10 µM. Besides, the outcome in test [2] was inactive. Besides, in test [3], the %max was 5.7%.

`COC(=O)c1ccccc1-c1ccc(Cn2c(C)nc3ccc(-c4nc5ccccc5n4C)cc32)cc1` had a Ki in test [1] greater than 10 µM. Further, in test [2], the outcome was inactive. The %max in test [3] amounted to 6.8%.

As for `COC(=O)c1ccc(-c2ccc(Cn3c(C)nc4ccc(-c5nc6ccccc6n5C)cc43)cc2)cc1`, in test [1], the Ki was greater than 10 µM. Also, in test [2], the result was inactive. The %max in test [3] was 7.3%.

Take `COC(=O)c1ccccc1-c1ccc(Cn2cnc3ccc(-c4nc5ccccc5n4C)cc32)cc1`: the Ki in test [1] is greater than 10 µM. Moreover, the outcome in test [2] was inactive. The %max in test [3] was determined as 6.3%.

For `CCCc1nc2c(C)cc(-c3nc4ccccc4n3C)cc2n1Cc1ccc(-c2ccc(C(=O)OC)cc2C(=O)OC)cc1`, the Ki in test [1] was determined as 0.65 µM. Moreover, the result in test [2] was inactive. The %max in test [3] turned out to be 8%.

In test [1], `COC(=O)c1ccccc1-c1ccc(Cn2cnc3c(C)cccc32)cc1` yielded a Ki greater than 10 µM. Moreover, the result in test [2] was inactive. The %max in test [3] was found to be 4.7%.

`CCCc1nc2c(C)cc(-c3nc4ccccc4n3C)cc2n1Cc1ccc(-c2ccc(C(=O)O)cc2C(=O)O)cc1`: the Ki in test [1] turned out to be 0.188 µM. Moreover, the result in test [2] was inactive. For the same molecule, the “%max” value in test [3] is “inactive”.

The molecule `COC(=O)c1ccc(-c2ccc(Cn3cnc4ccc(-c5nc6ccccc6n5C)cc43)cc2)c(C(=O)OC)c1` returned a Ki in test [1] greater than 10 µM. Besides, in test [2], the outcome was inactive. In addition, the %max in test [3] was found to be 5.7%.

In test [1], `COC(=O)c1ccc(-c2ccc(Cn3c(C)nc4ccc(-c5nc6ccccc6n5C)cc43)cc2)c(C(=O)OC)c1` registered a Ki greater than 10 µM. The outcome in test [2] was inactive. In addition, the %max in test [3] was 2.8%.

For the molecule `CCCc1nc2c(C)cc(-c3nc4ccccc4n3C)cc2n1Cc1ccc(-c2ccccc2C(=O)O)cc1` [TELMISARTAN], in test [1], the affinity, expressed as Ki, was 0.00023 µM. The outcome in test [2] was Active. The %max in test [3] turned out to be 21.2%.

`COC(=O)c1ccccc1-c1ccc(Cn2cnc3ccccc32)cc1` showed a Ki in test [1] greater than 10 µM. Further, the outcome in test [2] was inactive. In addition, in test [3], the %max was 1.8%.

`COC(=O)c1ccc(-c2ccc(Cn3cnc4ccc(-c5nc6ccccc6n5C)cc43)cc2)cc1`: the Ki in test [1] is greater than 10 µM. For the same molecule, the result in test [2] was inactive. Moreover, the %max in test [3] was 3.6%.

These data come from ChEMBL document CHEMBL3046017, “Design, synthesis, and docking studies of telmisartan analogs for the treatment of metabolic syndrome” (Med Chem Res, 2009).
